Key:
[1] = molecular target: T1, wild type transthyretin (WT-TTR) (Homo sapiens, UniProt P02766); assay: WT-TTR amyloid fibril formation assay (turbidimetry, acid-induced); assay type: biochemical; conditions: pH 4.4, 72 hours
T1 construct: made in house; host or cells: E. coli BL21 (DE3), pET23a plasmid
Experimental: (§1) The first set of evaluations is based on a fast, stagnant fibril formation assay that is used for the early screening of compounds, be they virtual screening hits or newly synthesized analogues. In this assay, a solution of the compound under test at 1.8, 3.6 or 7.2 μM is added to a solution of TTR at 3.6 μM, so that there is enough compound to bind to either one or both of TTR's binding sites. The pH of the resulting solution is then lowered to 4.4 to promote amyloidogenesis. The process of amyloid fibril formation over time is assessed by turbidimetry measurements at three different wavelengths (405, 450 and 490 nm, or at 550, 600 and 650 nm when the compound absorbs light at the previous wavelengths), using a spectrophotometer endowed with a BioTek microplate reader. The extent of fibril formation of each mixture is determined by normalizing a sample with the protein (TTR), in absence of compounds, which, at the end of 72 hours, represents 100% of amyloid fibril formation. In each experiment, each compound concentration is tested in triplicate. For each compound concentration and incubation time, the arithmetic mean of the triplicate experiments is calculated, as well as the arithmetic mean of the three measured wavelengths. High activity can be defined as a percentage of fibril formation below 10% at compound concentration 7.2 μM (TTR:compound stoichiometry 1:2) and below 40% at 3.6 μM (TTR:compound stoichiometry 1:1).
The in vitro activity of the compounds was assessed through a biochemical assay based on turbidimetry measurements, in which fibril formation is induced by acidification of the solution to pH 4.4 after incubation with the hit compound to be tested. The amount of amyloid fibrils formed is then monitored throughout 72 hours. Further details on this assay are provided in the “Evaluation of amyloid inhibition in vitro” subsection in “Materials and Methods”.
Experimental evaluation of the in vitro activity of virtual screening hits against amyloid fibril formation by TTR was carried out using a biochemical assay based on turbidimetry measurements. In this assay, fibril formation is induced by acidification of the solution to pH 4.4 after incubation with the hit compound to be tested. The amount of amyloid fibrils formed is monitored over 72 hours. Further details on the assay are provided in the “Evaluation of amyloid inhibition in vitro” subsection below.
(§2) Purchased virtual screening hits and all synthesized (optimization) derivatives were dissolved in DMSO to a final concentration of 10.8 mM to provide a primary stock solution. Several secondary stock solutions were prepared in DMSO by dilution of the primary stock solution and the concentrations were chosen depending on the effectiveness of the compound in inhibiting the TTR amyloid fibril formation.
(§3) The fibril formation assay was adapted to run in a high-throughput screening mode. For this purpose, 96-well microplates were used with a final assay volume of 100 μL.
(§4) One microLitre (μL) of different compound secondary stock solutions was added to 50 μL of a 7.2 μM wild type TTR (WT-TTR) or Val122Ile-TTR (V122I-TTR) solutions in 10 miliMolar (mM) sodium phosphate buffer, 100 mM KCl and 1 mM EDTA, pH 7.2, previously dialyzed against the same buffer solution. After 30 minutes of incubation at room temperature, the pH of the mixture was lowered to 4.4 with 49 μL of 200 mM acetate buffer, 100 mM KCl and 1 mM EDTA, pH 4.3.
(§5) The mixtures were incubated at 37° C. during 72 hours. Turbidity at 405 nm, 450 nm and 490 nm (or at 550, 600 and 650 nm when the test compound absorbs light at the previous wavelengths) was measured over time (0, 17, 24, 41, 48, 65 and 72 hours) using a BioTek Microplate Spectrophotometer to evaluate the extent of fibril formation. Immediately before the turbidity measurements, the mixtures were gently shacked during 1 minute to homogenize well and not damage the formed amyloid aggregates and fibrils.

[2] = HepG2 cell viability, resazurin reduction assay; assay type: cell-based; conditions: human, HepG2 hepatoma cells, approximately 72 hours incubation, read-out: inhibitory dose (ID50), cell viability
Excerpt: Cell viability of HepG2 hepatoma cells was quantified in order to assess the toxicity of the compounds at increasing concentrations. The used assay is described in detail in the “Experimental Evaluation of Cytotoxicity of Compounds using Cell-based Assays” section in “Materials and Methods”. This is a relevant assessment not just to discard potential concerns of liver damage (which is a problem reported for many drugs) but also because of the long-term nature of the treatments that patients suffering from TTR-mediated amyloidoses need to undertake.
Adherent human hepatoma cells HepG2 were cultured in DMEM (Dulbecco's Modified Eagle's Medium) with 10% fetal bovine serum (FBS), 100 U/mL penicillin, […] streptomycin, and 1 mM sodium pyruvate. The cells were grown in 75 cm^2 culture flasks at 37° C., in an atmosphere of 5% CO2, and subcultured twice a week using a trypsin-EDTA solution.
Upon 3 to 4 days of growth and reaching approximately 90% confluence, HepG2 cells were plated in 96-well microplates with cell density of 12×10^3 cells/well and in a volume of 100 μL per well.
The compounds are dissolved in DMSO and subsequently diluted in DMEM (in 9 intermediate […] concentrations). After adhesion of HepG2 cells to the microplates, […] 100 μL of each solution of intermediate compound concentration were added to each well (in quadruplicate). Positive controls were done with 10 wells containing only cells; solvent controls resulted from the analysis of the three highest DMSO concentrations tested and were carried out in triplicate.
After addition of the compounds to the cells, the microplates were incubated for approximately 72 hours at 37° C. in an atmosphere of 5% CO2 until the cell viability assay was performed.
The cell viability of HepG2 cells in the presence of test compounds was assessed by the resazurin reduction assay. Resazurin is a redox indicator that is converted into resorufin through reduction reactions of metabolically active cells. In the oxidized form it presents a purplish blue color, while the reduced form presents a purple-pink color.
A stock solution of 0.01% resazurin in PBS is diluted 1:10 in incomplete RPMI 1640 cell medium (without addition of antibiotics and FBS). After washing the cells with 200 μL PBS containing Ca^2+ and Mg^2+, 200 μL of resazurin 0.001% are added to the wells. Control runs with incomplete RPMI 1640 medium only and (without cells) are done in triplicate. […]
To quantify the reduction of resazurin to resorufin, microplate absorbance readings were taken at two wavelengths, 540 nm (reduced form) and 630 nm (oxidized form), in a Biotek spectrophotometer microplate reader. The percentage of viable cells at each compound concentration is determined using the formula: […]

[3] = molecular target: Val122Ile transthyretin (V122I-TTR) (Homo sapiens, UniProt P02766, V142I); assay: V122I-TTR amyloid fibril formation assay (turbidimetry, acid-induced); assay type: biochemical; conditions: pH 4.4, 72 hours
Experimental: as §1, §2, §3, §4
as §5, with “fibrils. The final turbidity was calculated as an average of the three wavelengths measured.” for “fibrils.”
In addition, control samples containing TTR with no inhibitor and 1% DMSO, as well as inhibitor in absence of TTR were tested and analyzed.
The extent of amyloid fibril formation data was normalized to TTR in the absence of inhibitor, assigned to be 100% fibril formation (or 0% amyloid inhibition) at the end of the experiment.
The extent of amyloid fibril formation throughout 72 hours was determined as described in the “Evaluation of amyloid inhibition in vitro” subsection above.
IC50 values were calculated from the inhibition curves obtained by fitting the values by a nonlinear curve method using the OriginPro7 (OriginLab Corporation, USA).

[4] = system: FAP patients; conditions: 18-month phase-III clinical trial; cited from earlier work
[5] = system: AD/TTR+/− mice; conditions: cited from earlier work

## O=C(O)CN1C(=O)/C(=C/c2cc(Cl)c(O)c(Cl)c2)SC1=S [AT50-A03, (Z)-3-hydroxycarbonylmethyl-5-(3′,5′-dichloro-4′-hydroxyphenylmethylidene)-2-thioxothiazolidin-4-one]
[1]; WT-TTR 3.6 μM, 1:1 TTR-compound stoichiometry, 37° C., normalized to no-compound control (100%)
  Fibril Formation (%): 10%
[1]; WT-TTR fixed at 3.6 μM, ten compound concentrations
  IC50: 1.17 ± 0.03 µM
[2]
  IC50 at 72 h: > 400 µM
[3]; V122I-TTR 3.6 μM, 37° C.
  Fibril Formation (%): 19%
[3]; V122I-TTR fixed at 3.6 μM, ten compound concentrations
  IC50: 1.61 µM
other
  melting point: 262 to 264 °C

## CNC[C@H](O)[C@@H](O)[C@H](O)[C@H](O)CO.O=C(O)c1ccc2nc(-c3cc(Cl)cc(Cl)c3)oc2c1 [Tafamidis meglumine, N-methyl D-(2,3,4,5,6-pentahydroxy-hexyl)-ammonium; 2-(3,5-dichloro-phenyl)-benzoxazole-6-carboxylate]
[4]
  FAP patients with improvement of symptoms: approximately 60%

## O=C(O)c1cc(-c2ccc(F)cc2F)cc(I)c1O [iododiflunisal]
[5]
  brain Abeta levels and deposition, cognitive function: decreased brain Abeta levels and deposition

Source: patent publication US11584727B2, “2-thioxothiazolidin-4-one derivatives active as transthyretin ligands and uses thereof” (BSIM Therapeutics, S.A., priority 2014, dated 2023)
